Values quoted from earlier work in publication PMC5108082, “Pharmacokinetics, toxicity, and cytochrome P450 modulatory activity of plumbagin” (BMC Pharmacology & Toxicology, 2016).

Tested on: K1 chloroquine-resistant P. falciparum
Conditions: K1 clone; read-out: mean IC50; cited from earlier work

Compound | IC50 [nM]
C[C@H]1[C@H](OC(=O)CCC(=O)O)O[C@@H]2O[C@@]3(C)CC[C@H]4[C@H](C)CC[C@@H]1[C@@]24OO3 [artesunate] | 1.5
CCN(CC)CCCC(C)Nc1ccnc2cc(Cl)ccc12 (centres unmarked) [chloroquine] | 130
OC(c1cc(C(F)(F)F)nc2c(C(F)(F)F)cccc12)C1CCCCN1 (centres unmarked) [mefloquine] | 12
C=C[C@H]1C[N@@]2CC[C@H]1C[C@H]2[C@H](O)c1ccnc2ccc(OC)cc12 [quinine] | 133

Tested on: 3D7 chloroquine-sensitive P. falciparum
Conditions: 3D7 clone; read-out: mean IC50; cited from earlier work

Compound | IC50 [nM]
C[C@H]1[C@H](OC(=O)CCC(=O)O)O[C@@H]2O[C@@]3(C)CC[C@H]4[C@H](C)CC[C@@H]1[C@@]24OO3 [artesunate] | 2
CCN(CC)CCCC(C)Nc1ccnc2cc(Cl)ccc12 (centres unmarked) [chloroquine] | 8
OC(c1cc(C(F)(F)F)nc2c(C(F)(F)F)cccc12)C1CCCCN1 (centres unmarked) [mefloquine] | 10
C=C[C@H]1C[N@@]2CC[C@H]1C[C@H]2[C@H](O)c1ccnc2ccc(OC)cc12 [quinine] | 52
